Test results as given in US9566282B2, “Methods for identifying and validating selective anti-cancer stem cell agents” (MCMASTER UNIVERSITY, priority 2011, dated 2017).

What follows are molecules tested on v1O4 and H9 cells (assay: p53 staining of v1O4 and H9 cells).
Format: cell-based, human
From the text: Variant neoplastic stem cells (v1O4 cells) and normal H9 stem cells were fixed and stained for p53 expression following treatment with selective-activity compounds.
In the case of `OCCN1CCN(CCCN2c3ccccc3Sc3ccc(C(F)(F)F)cc32)CC1` [fluphenazine], the “activation of the p53 stress response (% cells positive for p53)” value (from here on “activation … (% cells positive for p53)”) is reported as “little or no activation of the p53 stress response”.
In the case of `OCCN1CCN(CCCN2c3ccccc3Sc3ccc(Cl)cc32)CC1` [perphenazine], the “activation … (% cells positive for p53)” value is reported as “little or no activation of the p53 stress response”.
With `CN1CCN(CCCN2c3ccccc3Sc3ccc(Cl)cc32)CC1` [prochlorperazine] the “activation … (% cells positive for p53)” value was “little or no activation of the p53 stress response”.
In the case of `CN1CCN(CCCN2c3ccccc3Sc3ccc(C(F)(F)F)cc32)CC1` [trifluoperazine], the “activation … (% cells positive for p53)” value is reported as “little or no activation of the p53 stress response”.
For `CN(C)CCCN1c2ccccc2Sc2ccc(C(F)(F)F)cc21` [triflupromazine], the “activation … (% cells positive for p53)” value was “little or no activation of the p53 stress response”.
